Assay results: article PMC10482691, “LTP induction by structural rather than enzymatic functions of CaMKII” (Nature, 2023)
Values joined by “and” are separate entries in the source; they are usually repeats but may differ in a detail not shown here. Equal entries are not always repeated.

Tests used:
SAPK2a(h) = SAPK2a(h) (Homo sapiens, UniProt Q16539); test: Kinase selectivity panel (residual activity at 1 μM); assay type: biochemical; settings: inhibitor at 1 μM
purified CaMKII = purified CaMKII (Rattus norvegicus, UniProt P11275); test: In vitro kinase reaction: CaMKII phosphorylation of GST-2BC (GluN2B) S1303; assay type: biochemical
Procedure: CaMKII-mediated phosphorylation of GluA1 S831 or GluN2B S1303 was measured by in vitro kinase reaction with a purified GST–GluA1 C-terminal tail or GST-GluN2B C-terminal tail. Reactions contained 40 nM CaMKII, 1 μM GST–GluA1, 50 mM PIPES, pH 7.1, 2 mM CaCl2, 10 mM MgCl2, 1 μM calmodulin, 1–4 mM ATP and 1 μM okadaic acid. Negative controls were prepared without ATP. Reactions were done at 30 °C for 20 s; reactions were stopped by adding SDS loading buffer and incubation in a boiling water bath for 5 min. GST, phospho-S831, CaMKII, phospho-T286 or phospho-S1303 were detected in the samples by immunoblot analysis.
Extended Data Fig. 3 No difference in LTP in WT mice when CaMKII is inhibited by either 10 or 30 μM AS283. Data are presented as mean values +/− SEM. a, 2x HFS potentiates the CA3-CA1 Schaffer collateral pathway in WT mice when CaMKII enzymatic activity is inhibited by 10 or 30 μM AS283 (incubated for 15 min prior to HFS, and washed out 5 min after). b, Quantification of LTP in WT mice after 10 or 30 μM AS283 (n = 3,7 hippocampal slices; Mann-Whitney test). p = 0.3833. c, Representative immunoblot and quantification of CaMKII T286 phosphorylation in dissociated hippocampal cultures after cLTP and inhibition by 10 μM AS283 (n = 4 independent cell preparations; one-way ANOVA, Tukey’s multiple comparisons test). […]

FGFR1(h) = FGFR1(h) (Homo sapiens, UniProt P11362); test: Kinase selectivity panel (residual activity at 1 μM); assay type: biochemical; settings: inhibitor at 1 μM; read-out: residual kinase activity in % of maximal activity
Chain of FGFR1(h) (P11362 22-822): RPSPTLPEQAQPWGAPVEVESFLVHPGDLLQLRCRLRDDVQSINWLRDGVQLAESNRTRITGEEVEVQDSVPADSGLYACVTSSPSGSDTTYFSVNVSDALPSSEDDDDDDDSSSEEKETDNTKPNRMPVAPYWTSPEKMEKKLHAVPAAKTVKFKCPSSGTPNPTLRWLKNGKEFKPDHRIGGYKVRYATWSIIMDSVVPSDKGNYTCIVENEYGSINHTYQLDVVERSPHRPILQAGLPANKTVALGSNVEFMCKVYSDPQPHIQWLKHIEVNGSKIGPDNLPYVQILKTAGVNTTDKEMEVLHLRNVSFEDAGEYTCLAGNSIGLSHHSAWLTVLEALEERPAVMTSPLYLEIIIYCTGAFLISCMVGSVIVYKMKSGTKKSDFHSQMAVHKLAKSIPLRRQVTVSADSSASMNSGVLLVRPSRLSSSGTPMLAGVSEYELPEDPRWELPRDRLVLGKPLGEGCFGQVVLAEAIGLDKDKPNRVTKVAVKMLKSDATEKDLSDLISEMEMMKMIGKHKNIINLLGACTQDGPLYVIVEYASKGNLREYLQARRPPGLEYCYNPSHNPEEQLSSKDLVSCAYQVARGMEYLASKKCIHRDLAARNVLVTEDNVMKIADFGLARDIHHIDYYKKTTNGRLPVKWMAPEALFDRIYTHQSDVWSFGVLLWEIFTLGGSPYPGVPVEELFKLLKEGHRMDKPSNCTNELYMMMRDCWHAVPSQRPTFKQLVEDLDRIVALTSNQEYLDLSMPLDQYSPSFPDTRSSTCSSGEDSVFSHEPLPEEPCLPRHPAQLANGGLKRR

CaMKIV(h) = CaMKIV(h) (Homo sapiens, UniProt Q16566); test: as above; assay type: biochemical; settings: inhibitor at 1 μM; read-out: residual kinase activity in % of maximal activity
Chain of CaMKIV(h) (Q16566 whole entry): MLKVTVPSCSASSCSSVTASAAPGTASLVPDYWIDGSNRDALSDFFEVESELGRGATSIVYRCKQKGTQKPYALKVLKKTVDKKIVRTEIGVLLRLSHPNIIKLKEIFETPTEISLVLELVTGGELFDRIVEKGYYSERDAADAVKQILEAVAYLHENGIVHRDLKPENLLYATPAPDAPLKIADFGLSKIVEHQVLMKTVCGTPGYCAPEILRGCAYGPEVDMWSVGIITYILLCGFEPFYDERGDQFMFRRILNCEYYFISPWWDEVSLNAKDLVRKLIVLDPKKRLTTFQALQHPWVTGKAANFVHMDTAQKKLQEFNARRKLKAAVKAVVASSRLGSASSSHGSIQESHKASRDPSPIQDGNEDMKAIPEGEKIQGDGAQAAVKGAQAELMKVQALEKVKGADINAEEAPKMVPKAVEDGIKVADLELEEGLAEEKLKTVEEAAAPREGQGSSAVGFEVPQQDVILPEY

purified CaMKIIα [1] = target: T1, purified CaMKIIα (Rattus norvegicus, UniProt P11275); test: In vitro kinase reaction: CaMKIIα autophosphorylation of T286; assay type: biochemical; settings: 30 °C, 1 mM ATP, Ki from IC50 with Km ATP 33.3 μM, read-out: apparent inhibitor constant (Ki), pT286
Procedure: (§1) Data are presented as mean values ± s.e.m. a, Schematic of the AS283 inhibitor mechanism of action: ATP-competitive inhibition blocks enzymatic activity while mimicking the nucleotide binding requirement to allow interaction with GluN2B. b, Representative immunoblot and quantification of in vitro kinase reactions at 30 °C in 1 mM ATP measuring purified CaMKIIα phosphorylation of GST–GluA1 S831 with varying concentrations of AS283 (0.41–10 μM; n = 4 independent concentration curves). For a negative control (Neg.), ATP was omitted. […] ADP:AS283 P = 0.0697; ADP:tatCN21 P < 0.0001. ***P < 0.001. d, Confocal microscopy images of HEK293 cells co-expressing GFP–CaMKII and mCherry-2BC. […] CaMKII synaptic enrichment was measured before and after cLTP (n = 14,9 cells; RM two-way ANOVA with Šídák’s multiple comparisons test). […]
(§2) CaMKII-mediated phosphorylation of GluA1 S831 or GluN2B S1303 was measured by in vitro kinase reaction with a purified GST–GluA1 C-terminal tail or GST-GluN2B C-terminal tail. […] GST, phospho-S831, CaMKII, phospho-T286 or phospho-S1303 were detected in the samples by immunoblot analysis.
(§3) The inhibition constant Ki was calculated using the Cheng–Prusoff equation for competitive inhibition: Ki = IC50/(1 + [ATP]/Km).

Aurora-C(h) = Aurora-C(h) (Homo sapiens, UniProt Q9UQB9); test: Kinase selectivity panel (residual activity at 1 μM); assay type: biochemical; settings: inhibitor at 1 μM; read-out: residual kinase activity in % of maximal activity
Chain of Aurora-C(h) (Q9UQB9 whole entry): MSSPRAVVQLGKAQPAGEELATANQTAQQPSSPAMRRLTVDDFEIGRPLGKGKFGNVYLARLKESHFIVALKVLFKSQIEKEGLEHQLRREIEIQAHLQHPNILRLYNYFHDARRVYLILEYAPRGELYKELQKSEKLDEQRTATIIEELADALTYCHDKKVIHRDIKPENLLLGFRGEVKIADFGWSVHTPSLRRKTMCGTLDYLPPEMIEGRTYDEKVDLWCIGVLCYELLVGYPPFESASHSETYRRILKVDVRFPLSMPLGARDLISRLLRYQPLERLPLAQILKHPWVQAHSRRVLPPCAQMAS

PKCδ(h) = PKCδ(h) (Homo sapiens, UniProt Q05655); test: as above; assay type: biochemical; settings: inhibitor at 1 μM; read-out: residual kinase activity in % of maximal activity
Chain of PKCδ(h) (Q05655 whole entry): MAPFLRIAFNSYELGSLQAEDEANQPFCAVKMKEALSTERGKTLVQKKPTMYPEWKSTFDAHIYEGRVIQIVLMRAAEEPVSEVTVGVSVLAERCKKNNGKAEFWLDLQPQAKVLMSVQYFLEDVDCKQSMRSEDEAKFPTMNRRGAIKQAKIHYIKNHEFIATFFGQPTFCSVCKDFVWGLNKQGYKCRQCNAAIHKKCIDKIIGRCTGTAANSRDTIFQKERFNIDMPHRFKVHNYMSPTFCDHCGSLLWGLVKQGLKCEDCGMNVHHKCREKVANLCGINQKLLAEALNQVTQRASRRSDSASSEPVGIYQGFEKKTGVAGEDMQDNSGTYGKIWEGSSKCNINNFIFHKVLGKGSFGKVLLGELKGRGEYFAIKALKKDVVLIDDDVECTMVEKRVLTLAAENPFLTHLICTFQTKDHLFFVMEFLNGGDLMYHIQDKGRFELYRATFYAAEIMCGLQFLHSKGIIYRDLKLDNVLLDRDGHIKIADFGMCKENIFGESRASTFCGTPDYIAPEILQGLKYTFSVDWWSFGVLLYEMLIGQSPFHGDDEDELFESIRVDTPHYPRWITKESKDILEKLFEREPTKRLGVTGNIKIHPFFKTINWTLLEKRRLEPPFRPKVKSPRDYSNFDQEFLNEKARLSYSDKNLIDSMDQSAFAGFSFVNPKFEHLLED

PDK1(h) = PDK1(h) (Homo sapiens, UniProt O15530); test: as above; assay type: biochemical; settings: inhibitor at 1 μM; read-out: residual kinase activity in % of maximal activity
Chain of PDK1(h) (O15530 whole entry): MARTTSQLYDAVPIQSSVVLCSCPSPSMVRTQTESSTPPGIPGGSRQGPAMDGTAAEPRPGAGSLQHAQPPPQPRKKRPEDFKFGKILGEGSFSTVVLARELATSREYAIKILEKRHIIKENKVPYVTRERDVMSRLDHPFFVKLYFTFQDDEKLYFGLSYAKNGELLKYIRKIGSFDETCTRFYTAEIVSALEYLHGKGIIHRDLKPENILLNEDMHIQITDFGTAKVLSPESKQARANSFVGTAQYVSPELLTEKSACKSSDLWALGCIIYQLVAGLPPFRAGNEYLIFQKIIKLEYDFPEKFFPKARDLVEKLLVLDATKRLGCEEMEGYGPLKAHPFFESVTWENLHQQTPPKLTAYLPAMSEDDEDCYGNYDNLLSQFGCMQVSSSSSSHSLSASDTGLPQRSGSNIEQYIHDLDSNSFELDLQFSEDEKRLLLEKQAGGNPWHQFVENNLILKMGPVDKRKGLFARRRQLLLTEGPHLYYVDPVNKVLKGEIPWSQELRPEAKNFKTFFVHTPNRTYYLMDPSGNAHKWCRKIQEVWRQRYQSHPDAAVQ

purified CaMKIIα [2] = target: T1, purified CaMKIIα; test: In vitro kinase reaction: CaMKIIα phosphorylation of GST–GluA1 S831; assay type: biochemical; settings: 30 °C, 1 mM ATP, Ki from IC50 with Km ATP 33.3 μM, read-out: apparent inhibitor constant (Ki), pS831
Procedure: as §1, §2, §3

AMPKα1(h) = AMPKα1(h) (Homo sapiens, UniProt Q13131); test: Kinase selectivity panel (residual activity at 1 μM); assay type: biochemical; settings: inhibitor at 1 μM; read-out: residual kinase activity in % of maximal activity
Chain of AMPKα1(h) (Q13131 whole entry): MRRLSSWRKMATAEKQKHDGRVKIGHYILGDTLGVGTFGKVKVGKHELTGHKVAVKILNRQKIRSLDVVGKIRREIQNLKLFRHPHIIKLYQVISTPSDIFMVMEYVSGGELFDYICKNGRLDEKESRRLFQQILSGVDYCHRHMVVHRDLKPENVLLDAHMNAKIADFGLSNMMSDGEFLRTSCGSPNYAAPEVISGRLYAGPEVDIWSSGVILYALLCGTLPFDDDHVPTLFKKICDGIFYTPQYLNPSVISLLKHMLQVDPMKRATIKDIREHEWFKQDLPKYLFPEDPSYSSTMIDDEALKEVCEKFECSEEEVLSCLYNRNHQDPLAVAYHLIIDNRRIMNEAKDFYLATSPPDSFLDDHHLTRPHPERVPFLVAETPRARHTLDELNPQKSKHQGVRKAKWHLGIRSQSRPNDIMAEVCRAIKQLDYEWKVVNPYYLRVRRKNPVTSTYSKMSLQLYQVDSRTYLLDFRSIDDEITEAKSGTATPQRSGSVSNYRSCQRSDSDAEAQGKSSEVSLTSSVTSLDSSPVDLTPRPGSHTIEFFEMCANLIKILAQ
Chain of AMPKα1(h) (Q9Y478 whole entry partner): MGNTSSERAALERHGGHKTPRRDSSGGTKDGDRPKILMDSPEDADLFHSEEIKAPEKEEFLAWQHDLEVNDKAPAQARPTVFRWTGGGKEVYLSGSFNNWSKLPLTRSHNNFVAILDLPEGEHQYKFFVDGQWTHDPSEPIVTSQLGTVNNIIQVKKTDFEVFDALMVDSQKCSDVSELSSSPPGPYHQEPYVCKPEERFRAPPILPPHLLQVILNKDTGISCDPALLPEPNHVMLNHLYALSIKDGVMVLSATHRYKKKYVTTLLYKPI
Chain of AMPKα1(h) (P54619 whole entry partner): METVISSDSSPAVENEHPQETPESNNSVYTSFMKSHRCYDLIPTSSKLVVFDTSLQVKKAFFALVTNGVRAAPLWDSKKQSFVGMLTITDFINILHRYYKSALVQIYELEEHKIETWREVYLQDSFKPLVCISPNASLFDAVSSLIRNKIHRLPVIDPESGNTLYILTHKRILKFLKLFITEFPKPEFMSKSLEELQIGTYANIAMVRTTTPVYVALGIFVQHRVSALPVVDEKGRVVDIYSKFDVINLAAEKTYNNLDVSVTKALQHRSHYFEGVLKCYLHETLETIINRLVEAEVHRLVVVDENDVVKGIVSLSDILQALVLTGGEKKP

[3] = system: GFP–CaMKII K42M in rat hippocampal neurons; test: cLTP-induced CaMKII synaptic enrichment in dissociated hippocampal cultures (GFP–CaMKII K42M); assay type: cell-based; settings: sheet 4e

Chain of SAPK2a(h) (Q16539 whole entry): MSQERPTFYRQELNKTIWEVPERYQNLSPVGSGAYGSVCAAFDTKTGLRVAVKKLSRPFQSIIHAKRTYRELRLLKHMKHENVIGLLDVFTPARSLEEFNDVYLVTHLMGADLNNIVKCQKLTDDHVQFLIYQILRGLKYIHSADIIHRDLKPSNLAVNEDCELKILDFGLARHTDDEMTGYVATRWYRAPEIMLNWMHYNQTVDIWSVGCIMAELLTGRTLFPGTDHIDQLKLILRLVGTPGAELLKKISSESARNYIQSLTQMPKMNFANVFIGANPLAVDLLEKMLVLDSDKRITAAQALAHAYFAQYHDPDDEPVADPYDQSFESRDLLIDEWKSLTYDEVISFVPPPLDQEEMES

NCCNc1cccc(-c2ccnc3[nH]c4ccccc4c23)c1 [AS283]
residual kinase activity in % of maximal activity (SAPK2a(h)): 95%
GluN2B S1303 phosphorylation (immunoblot, normalized) (purified CaMKII; ATP + 10 μM AS283, 30 °C): 25.6775% and 36.949% and 34.6383% and 24.0932%
effect on CaMKII-mediated S1303 phosphorylation (purified CaMKII; WT GluN2B C terminus): inhibited
remaining activity at 1 µM (FGFR1(h)): 58%
remaining activity at 1 µM (CaMKIV(h)): 90%
Ki (purified CaMKIIα [1]): 71 nM
remaining activity at 1 µM (Aurora-C(h)): 63%
remaining activity at 1 µM (PKCδ(h)): 39%
remaining activity at 1 µM (PDK1(h)): 78%
Ki (purified CaMKIIα [2]): 17 nM
remaining activity at 1 µM (AMPKα1(h)): 70%

CC(C)(C)n1nc(Cc2cccc3ccccc23)c2c(N)ncnc21 [NM-PP1]
CaMKII synaptic enrichment ([3]; NMPP1, before cLTP, individual neurons): 1.065 and 0.7915 and 0.7418 and 0.4255 and 0.8744 and 0.8871
CaMKII synaptic enrichment ([3]; after cLTP in NMPP1, individual neurons): 1.554 and 1.155 and 0.8796 and 0.5587 and 1.358 and 1.0618
